Results taken from patent publication US10793927B2, “Separation of lignin and sugars from biomass pre-treatment liquors” (Stichting Energieonderzoek Centrum Nederland, priority 2015, dated 2020).

Experiment: Solubility test of xylose in solvent systems suitable as organosolv treatment liquid
Format: physicochemical
Conditions: 20° C., stirred 24 h, based on total weight of the xylose added
Description: The solubility of xylose (>99% pure, VWR) in different solvent systems, that are suitable to be used as treatment liquid during organosolv, is tested. Xylose was used as representative of all monomeric sugars, as it is the most abundant carbohydrate found in hemicellulose present in hardwoods and herbaceous biomass and thus in corresponding organosolv liquors. The indicated amount of xylose was added to each solvent system at 20° C. and the suspension was mechanically stirred for 24 h. Hereafter, the saturated solution containing remaining xylose was allowed to settle for 3 h and the liquid was removed. The residue was dried and the amount of undissolved xylose was determined.

O=C[C@H](O)[C@@H](O)[C@H](O)CO [xylose]
xylose not dissolved (acetone (100%), 2.7 wt % xylose added): 99.1 wt % | xylose not dissolved (ethanol (100%), 2.5 wt % xylose added): 82.2 wt % | xylose not dissolved (water/acetone 1.9/98.1 (w/w), 2.7 wt % xylose added): 99.1 wt % | xylose not dissolved (water/acetone 4.9/95.1 (w/w), 2.7 wt % xylose added): 93.0 wt % | xylose not dissolved (water/acetone 8.4/91.6 (w/w), 2.0 wt % xylose added): 79.1 wt % | xylose not dissolved (water/acetone 9.9/90.1 (w/w), 2.3 wt % xylose added): 80.2 wt % | xylose not dissolved (water/ethanol 4.3/95.7 (w/w), 2.2 wt % xylose added): 49.7 wt % | xylose not dissolved (water/ethanol 4.7/95.3 (w/w), 2.3 wt % xylose added): 46.2 wt % | xylose not dissolved (water/ethanol 7.8/92.2 (w/w), 2.3 wt % xylose added): 16.6 wt % | xylose not dissolved (water/ethanol 9.7/90.3 (w/w), 2.3 wt % xylose added): 0.0 wt %
